Patent publication US10619210B2, “Predicting response to epigenetic drug therapy” (THE JOHNS HOPKINS UNIVERSITY, priority 2014, dated 2020)

What was measured:
Type in all cases: cell-based, human
[1] = test system: 63 cancer cell lines (26 breast, 14 colorectal, and 23 ovarian); test: GSEA gene sets common to 63 cancer cell lines (breast, colorectal, ovarian) after AZA
Experimental: (§1) In the context of the above background, we explored further our understanding of the global pathway changes after treatment with low doses of the DNMTi AZA in cell lines from multiple common human cancers. A total of 63 cancer cell lines (26 breast, 14 colorectal, and 23 ovarian) were treated with low dose, 500 nM, AZA for three days. DNA and RNA were isolated at multiple time points following initial drug application and analyzed for genome-wide changes in DNA methylation and gene expression (Agilent 44K Expression Array). […] These gene sets could be broadly divided into four categories including cell cycle control (cell cycle, mitosis, meiosis), DNA replication (DNA replication and packaging, transcription), mRNA splicing and translation, and immune response (FIG. 1C,D; Tables 2 and 3). […] See also FIG. 1A. […] See also FIG. 1B.
63 cell lines (26 breast cancer, 14 colorectal cancer, 23 ovarian cancer) were used in these experiments. Breast cell lines included BT20, BT474, CAMA1, EFM19, MDA453, MDA468, MDA361, MCF7, MDA231, T47D, HCC1500, and HCC1187 obtained from the American Type Tissue Collection; HCC1419, HCC38, EFM192A, HCC1569, HCC1937, HCC1954, MDA175, MDA415, MDA436, SUM149, SUM159, SKBR3, ZR751, and ZR7530 from Dr. Dennis Slamon. All cells were maintained under recommended conditions. Colorectal cell lines were all obtained from the American Type Tissue Collection and were maintained under recommended conditions. These included CACO-2, Colo201, Colo205, Colo320, DLD1, HCT116, HT29, Lovo, RKO, SK-CO1, SNUC-1, SW48, SW480, and SW620. Ovarian cell lines were obtained from the laboratory of Dr. Dennis Slamon and included A2780, CAOV3, DOV13, EFO27, ES2, Hey, HEYC2, Kuramochi, OAW28, OAW42, OV167, OV2008, OV90, OVCA429, OVCA432, OVMANA, OVCAR3, OVCAR5, OVKATE, PEO14, SKOV3, TOV112D, and TykNu; these were maintained under the ATCC recommended conditions.
Cell lines were treated with 500 nM of AZA or carboplatin (Sigma; St. Louis, Mo.) for 72 hours while in log-growth phase, changing the media and drug every 24 hours for AZA treatment. To select an appropriate chemotherapy control, the carboplatin dose that had the similar growth inhibitory effect to 500 nM AZA after 10 days was selected. Cells were harvested at 1, 3, 7, 10, 14, 21, or 28 days following initial application of drug. […]
(§2) All data were analyzed using R: A Language and Environment for Statistical Computing. […] These normalized values were then analyzed utilizing the Gene Set Enrichment Analysis by the Broad Institute and data packages (C5BP, Reactome, KEGG). […] TCGA HumanMethylation27K level 3 data was downloaded, standard deviation of Infinium β-values across all primary cancer samples were calculated, and the top one thousand most variable probes were chosen for hierarchical cluster analysis. […]

breast cancer cell lines [2] = test: GSEA of Agilent 44K expression arrays after low-dose AZA, breast cancer cell lines
Experimental: as §1, with “1B. […]” for “1B.”
as §2

[3] = test system: colorectal cancer cell lines; test: GSEA of Agilent 44K expression arrays after low-dose AZA, colorectal cancer cell lines
Experimental: as §1, with “1B. […]” for “1B.”
as §2

lung cancer cell lines = test: GSEA of lung cancer cell lines treated with the same AZA dosing schedule; details: 14 lung cancer cell lines
[4] = test system: cell lines from breast, ovarian and colorectal cancers; test: AZA-induced promoter CpG island demethylation and re-expression (Infinium 450K), all three cancer types
Excerpt: The canonical effects of AZA have traditionally been described as demethylation of promoter regions and subsequent expression of the silenced gene. Many of the pathway changes in response to AZA, such as increased expression of immune genes, may be the result of downstream events elicited by a small number of hubs related to promoter DNA demethylation and associated gene upregulation. We investigated hub networks in our current pan-cancer analyses by first searching, in a genome-wide analysis using the Infinium 450K methylation platform, for genes that have AZA-induced demethylation of cancer-specific, DNA hypermethylated, CpG islands associated with proximal promoter regions. The total number of such demethylated genes in the cell lines from breast, ovarian and colorectal cancers was 162 (FIG. 8A). […] The highest percentages of these demethylation and re-expression events were again seen in immune genes; 26%, of the 162 genes were categorized as immune related (FIG. 8B,C). Overall, immune gene demethylation and re-expression was again highest in ovarian cancer cell lines (53.8%) followed by colorectal (42.8%) and breast (30.7%) cancer cell lines (FIG. 8B). Of note, amongst these 162 genes, 8 (4.9%) were also in our AIM gene set (BNIP3, HERC5, ICAM1, IRF7, MX1, MST1R, PSMB8, TCRIG1) with IRF7, a member of the interferon regulatory factor family of transcription factors in particular being notable for being a canonical demethylated and reexpressed gene.
Cell lines were treated with 500 nM of AZA or carboplatin (Sigma; St. Louis, Mo.) for 72 hours while in log-growth phase, changing the media and drug every 24 hours for AZA treatment. To select an appropriate chemotherapy control, the carboplatin dose that had the similar growth inhibitory effect to 500 nM AZA after 10 days was selected. Cells were harvested at 1, 3, 7, 10, 14, 21, or 28 days following initial application of drug. DNA and RNA were obtained using standard protocols. RNA from 63 cell lines was sent for the Agilent 44K Expression Array and DNA from 53 cell lines was sent for the Illumina 450K Methylation Array.
All data were analyzed using R: A Language and Environment for Statistical Computing. Expression normalization of cell line data was performed using the package Limma as previously described. Data was normalized within each tumor type (breast, colorectal, and ovarian). These normalized values were then analyzed utilizing the Gene Set Enrichment Analysis by the Broad Institute and data packages (C5BP, Reactome, KEGG). […] TCGA HumanMethylation27K level 3 data was downloaded, standard deviation of Infinium β-values across all primary cancer samples were calculated, and the top one thousand most variable probes were chosen for hierarchical cluster analysis. […]

[5] = test system: A2780 ovarian cancer cells; test: qRT-PCR of AIM genes in A2780 after AZA or carboplatin; details: 500 nM for 72 hours, then 7 days recovery without drug
Experimental: FIG. 9A-9D. AIM genes are induced by TSA but not by chemotherapeutic agents. […] FIG. 9B: Box plots of AIM genes after TSA treatment. FIG. 9C: Box plots of AIM genes in DKO cells compared to the parent HCT116 cell line. The orange lines indicate 2 fold change. FIG. 9D: A2780 ovarian cancer cells were treated with 500 nM AZA or carboplatin for 72 hours, then allowed to recover for 7 days without drug before RNA was isolated. qRT-PCR was performed for IFI27, IL-15, IRF7, and MAGEB2 genes. Blue bars indicate Mock treatment, purple indicate AZA, and orange indicate carboplatin. Fold change is plotted on the Y axis. Each bar represents the average and standard deviation of three biological replicates. […]
After total cellular RNA was extracted using the Trizol method (Life Technologies, Carlsbad, Calif.), RNA concentration was determined using the Nanodrop machine and software (Thermo Fisher Scientific, Rockville, Md.). 1 μg total RNA was used to generate cDNA with the QuantiTect Reverse Transcription Kit (Qiagen, Venlo, Netherlands). Quantitative reverse transcription PCR (q-RT-PCR) of CD274, DDX58, HLA-C, IFI6, IFI27, IL-15, IRF7, IRF9, MAEL, and MAGEB2 mRNA was performed using TaqMan assays (Life Technologies, Carlsbad, Calif.) and the Applied Biosystems 7500 Fast real-time PCR system and software. […]

[6] = test system: HCC1569, ZR751, COLO201, HT29, A2780 and TYKNU cells; test: qRT-PCR validation of AIM genes in two cell lines from each cancer type; details: two cell lines per cancer type
Experimental: After total cellular RNA was extracted using the Trizol method (Life Technologies, Carlsbad, Calif.), RNA concentration was determined using the Nanodrop machine and software (Thermo Fisher Scientific, Rockville, Md.). 1 μg total RNA was used to generate cDNA with the QuantiTect Reverse Transcription Kit (Qiagen, Venlo, Netherlands). Quantitative reverse transcription PCR (q-RT-PCR) of CD274, DDX58, HLA-C, IFI6, IFI27, IL-15, IRF7, IRF9, MAEL, and MAGEB2 mRNA was performed using TaqMan assays (Life Technologies, Carlsbad, Calif.) and the Applied Biosystems 7500 Fast real-time PCR system and software. Human β-actin mRNA was used as the endogenous control. The ΔΔCT method was used to calculate relative expression levels. All qRT-PCR assays were carried out in triplicate and then repeated with new cDNA synthesis. Minus RT controls (reverse transcriptase negative cDNA synthesis reactions) were performed for at least one sample per plate.

[7] = test system: colorectal cancer cell lines; test: AZA-induced immune gene demethylation and re-expression, colorectal cancer cell lines
Excerpt: (§3) The canonical effects of AZA have traditionally been described as demethylation of promoter regions and subsequent expression of the silenced gene. Many of the pathway changes in response to AZA, such as increased expression of immune genes, may be the result of downstream events elicited by a small number of hubs related to promoter DNA demethylation and associated gene upregulation. We investigated hub networks in our current pan-cancer analyses by first searching, in a genome-wide analysis using the Infinium 450K methylation platform, for genes that have AZA-induced demethylation of cancer-specific, DNA hypermethylated, CpG islands associated with proximal promoter regions. The total number of such demethylated genes in the cell lines from breast, ovarian and colorectal cancers was 162 (FIG. 8A). […]
as §2

breast cancer cell lines [8] = test: AZA-induced immune gene demethylation and re-expression, breast cancer cell lines
Excerpt: as §3, §2

[9] = test system: ovarian cancer cell lines; test: GSEA of Agilent 44K expression arrays after low-dose AZA, ovarian cancer cell lines
Experimental: as §1, with “1B. […]” for “1B.”
as §2

[10] = test system: ovarian cancer cell lines; test: AZA-induced immune gene demethylation and re-expression, ovarian cancer cell lines
Excerpt: as §3, §2

colon cancer cell lines = test: AIM gene expression in colon cancer cell lines after TSA; details: six colon cancer cell lines, 300 nM TSA for 18 hours
Experimental: FIG. 9A-9D. AIM genes are induced by TSA but not by chemotherapeutic agents. […] FIG. 9B: Box plots of AIM genes after TSA treatment. FIG. 9C: Box plots of AIM genes in DKO cells compared to the parent HCT116 cell line. The orange lines indicate 2 fold change. FIG. 9D: A2780 ovarian cancer cells were treated with 500 nM AZA or carboplatin for 72 hours, then allowed to recover for 7 days without drug before RNA was isolated. qRT-PCR was performed for IFI27, IL-15, IRF7, and MAGEB2 genes. Blue bars indicate Mock treatment, purple indicate AZA, and orange indicate carboplatin. Fold change is plotted on the Y axis. Each bar represents the average and standard deviation of three biological replicates.
It is especially noteworthy that the DKO cell line (haplo-insufficient for DNMT1 and null for DNMT3B), which is shown as a genetic mimic of AZA treatment (FIG. 2B, FIG. 7) induces significant upregulation for most AIM genes (FIG. 9A, C). To determine whether this was specific to DNMT inhibitors, we also treated cells with an HDAC inhibitor (TSA) that has been used extensively in our laboratory. […] This activation appears to be in response to epigenetic agents and not the result of a general cell stress response that could be elicited by chemotherapeutics such as carboplatin.

[11] = 500 nM AZA for three days, NES>2.15, FDR<0.25

Nc1ncn([C@@H]2O[C@H](CO)[C@@H](O)[C@H]2O)c(=O)n1 [AZA, 5-azacitidine]
immune gene sets showing upregulation by AZA (15/16 gene sets) ([1]; 500 nM AZA for three days): 93.7% | downregulated GSEA gene sets common between the three cancer types ([1]; 500 nM AZA for three days, NES<-2.15, FDR<0.25): 52 gene sets | upregulated GSEA gene sets common between the three cancer types [1, 11]: 80 gene sets | enrichment for immunomodulatory pathways in all three cancers ([1]; range over breast, colorectal, ovarian): 14.4-31.3% | Overall immune pathway upregulation (percent of upregulated GSEA gene sets that are immune-related) (breast cancer cell lines [2]; [11]): 16.9% | upregulation of cancer testis antigens gene set (percent of cell lines) (breast cancer cell lines [2]; GSEA NES>2.15, FDR<0.25): 19.2% | Overall immune pathway upregulation (percent of upregulated GSEA gene sets that are immune-related) [3, 11]: 14.4% | upregulation of cancer testis antigens gene set (percent of cell lines) ([3]; GSEA NES>2.15, FDR<0.25): 64.3% | gene sets common to breast, colon, and ovarian cell lines also upregulated in the lung cancer cell lines (76/80) (lung cancer cell lines): 95% | significantly upregulated pathways that were immune related (lung cancer cell lines): 23.3% | share of the 162 demethylated/re-expressed genes categorized as immune related [4]: 26% | subset of the 162 genes showing demethylation and re-expression in all three cancer types [4]: 4.9% | number of the 162 demethylated/re-expressed genes also in AIM gene set ([4]; 8 (4.9%)): 8 genes | total number of demethylated (and re-expressed) genes ([4]; basal β ≥0.5, Δβ(AZA-Mock)≤-0.25, >2-fold expression): 162 genes | expression of AIM genes IFI27, IRF7, IL15, MAGEB2 (qRT-PCR) [5]: increased | qRT-PCR validation of AZA-induced re-expression of selected AIM (interferon response) genes [6]: Each chosen gene validated | qRT-PCR validation of upregulation of selected antigen presentation pathway genes [6]: validated | immune gene demethylation and re-expression (percent of cell lines) [7]: 42.8% | immune gene demethylation and re-expression (percent of cell lines) (breast cancer cell lines [8]): 30.7% | Overall immune pathway upregulation (percent of upregulated GSEA gene sets that are immune-related) ([9]; ovarian cancers, 500 nM AZA for three days, NES>2.15, FDR<0.25): 31.3% | upregulation of cancer testis antigens gene set (percent of cell lines) ([9]; ovarian, GSEA NES>2.15, FDR<0.25): 39.1% | immune gene demethylation and re-expression (percent of cell lines) [10]: 53.8%

CC(/C=C/C(=O)NO)=C\[C@@H](C)C(=O)c1ccc(N(C)C)cc1 [TSA]
regulation of AIM genes (colon cancer cell lines): regulates subsets of AIM genes but not as uniformly or robustly as DKO cells or AZA treated cells

N.N.O=C([O-])C1(C(=O)[O-])CCC1.[Pt+2] [carboplatin]
expression of AIM genes IFI27, IRF7, IL15, MAGEB2 (qRT-PCR) [5]: does not lead to overexpression
